# In patent US20060276340A1, “HERBICIDE COMPOSITION COMPRISING PYRIBAMBENZ-PROPYL OR PYRIBAMBENZ-ISOPROPYL” (Zhejiang Chem-Tech Group Co., Ltd., priority 2003, published 2006):
# Entries after “also recorded” stand apart in the source; their conditions may differ.
# Legend:
# Type in all cases: in vivo
# rape = assay: safety to crops; details: for selectivity between rape and weeds: in vivo; for safety to crops: rape / objective crops
# Description: The herbicidal activities of the compositions were evaluated by plant symptoms such as stunting, deformity, chlorosis, and whitening. 0 represents that the compositions have no herbicidal effect or have safety to crops. 100 represents that the weeds or crops were completely killed. [table]
# Beckmannia syzigachne [1] = assay: greenhouse pot test, Tables 1-2; details: BECSY 2 leaves
# Description: (§1) The test soil is a formulated sandy loam soil. 9.5 centimeter diameter pots are used for herbicidal activity test.
# (§2) The soil in the pot for the pre-emergence test was sprayed one day after planting. The preparation liquid for the treatment prepared by mixing individual single-herbicides was diluted with water to the desired dosage.
# (§3) The pots for post-emergence treatment are placed into a greenhouse and incubated for 7 to 9 days, and then subjected to leave treatment by spraying. The preparation liquid for the treatment prepared by mixing individual single-herbicides was diluted with water to the desired dosage.
# (§4) The treated pots stood for one day, then were placed in a greenhouse and watered regularly. The herbicidal activities of the compositions were evaluated by visual examination after incubating for 14 to 21 days.
# (§5) The herbicidal activities of the compositions were evaluated by plant symptoms such as stunting, deformity, chlorosis, and whitening. 0 represents that the compositions have no herbicidal effect or have safety to crops. 100 represents that the weeds or crops were completely killed.
# Poa annua [2] = assay: greenhouse pot test, Tables 1-2; details: POAAN 3 leaves
# Description: as §1, §2, §3, §4, §5
# Polypogon fugax [3] = assay: greenhouse pot test, Tables 1-2; details: POLFU 3-4 leaves
# Description: as §1, §2, §3, §4, §5
# Alopecurus aequalis [4] = assay: greenhouse pot test, Tables 1-2
# Description: as §1, §2, §3, §4, §5
# Digitrria sanguinalis = assay: greenhouse pot test, Tables 1-2; details: DIGSA 3 leaves
# Description: as §1, §2, §3, §4, §5
# Beckmannia syzigachne [5] = assay: greenhouse pot test, post-emergence early stage treatment; details: BECSY 2˜3 leaves
# Description: as §1, §3, §4, §5
# Poa annua [6] = assay: as above
# Description: as §1, §3, §4, §5
# Cerastium arvense [7] = assay: as above
# Description: as §1, §3, §4, §5
# Galium aparine [8] = assay: as above
# Description: as §1, §3, §4, §5
# Alopercurus japonicus [9] = assay: as above; details: ALOJA
# Description: as §1, §3, §4, §5
# weeds in rape field = assay: weed control in rape field, descriptive statements; details: for weed control: Alopecurus aequalis, Alopecurus japonicus, Stellaria aquatica, Stallaria media and Atellaria alsine; for effectiveness of control: second important weeds in rape field: Poa annua, sclerochloa kengiana, Beckmannia syzigachne, Polypogon fugax, broadleaf Cardlamine hirsuta, Galium aparine, Lapsana apogonoides, Hemistepta lyrata
# Veronica didyma = assay: greenhouse pot test, post-emergence treatment; details: VERDI
# Description: as §1, §3, §4, §5
# Poa annua [10] = assay: greenhouse pot test, post-emergence treatment; details: POAAN
# Description: as §1, §3, §4, §5
# Polypogon fugax [11] = assay: greenhouse pot test, post-emergence treatment; details: POLFU 4˜4.5 leaves
# Description: as §1, §3, §4, §5
# Alopecurus aequalis [12] = assay: greenhouse pot test, post-emergence treatment; details: ALOAE 3 leaves
# Description: as §1, §3, §4, §5
# Cerastium arvense [13] = assay: greenhouse pot test, post-emergence treatment; details: CERAR 6 leaves
# Description: as §1, §3, §4, §5
# Galium aparine [14] = assay: greenhouse pot test, post-emergence treatment
# Description: as §1, §3, §4, §5
# Alopercurus japonicus [15] = assay: greenhouse pot test, post-emergence treatment; details: ALOJA
# Description: as §1, §3, §4, §5
# Polypogon fugax [16] = assay: greenhouse pot test, pre-emergence treatment; details: POLFU
# Description: as §1, §2, §4, §5
# Alopecurus aequalis [17] = assay: greenhouse pot test, pre-emergence treatment; details: ALOAE
# Description: as §1, §2, §4, §5
# Cerastium arvense [18] = assay: greenhouse pot test, pre-emergence treatment; details: CERAR
# Description: as §1, §2, §4, §5
# Galium aparine [19] = assay: greenhouse pot test, pre-emergence treatment; details: GALAP
# Description: as §1, §2, §4, §5
smiles,measurement,setting,value
"COc1cc(OC)nc(Oc2ccccc2CNc2ccc(C(=O)OC(C)C)cc2)n1 [Pyribambenz-isopropyl, iso-propyl 4-({2-[(4,6-dimethoxypyrimidin-2-yl)oxy]benzyl}amino)benzoate]",selectivity between rape and weeds,rape,good selectivity
same,safety to crops,rape,safety toward rape
same,visual evaluation of weed effects,Beckmannia syzigachne [1]; 30 g/ha,30%
same,visual evaluation of weed effects,Beckmannia syzigachne [1]; 45 g/ha,30%
same,visual evaluation of weed effects,Poa annua [2]; 30 g/ha,60%
same,visual evaluation of weed effects,Poa annua [2]; 45 g/ha,90%
same,visual evaluation of weed effects,Polypogon fugax [3]; 30 g/ha,80%
same,visual evaluation of weed effects,Polypogon fugax [3]; 45 g/ha,80%
same,visual evaluation of weed effects,"Alopecurus aequalis [4]; ALOAE 0 leaf, 30 g/ha",90%
same,visual evaluation of weed effects,"Alopecurus aequalis [4]; ALOAE 0 leaf, 45 g/ha",90%
same,visual evaluation of weed effects,"Alopecurus aequalis [4]; ALOAE 3 leaves, 30 g/ha",100%
same,visual evaluation of weed effects,"Alopecurus aequalis [4]; ALOAE 3 leaves, 45 g/ha",100%
same,visual evaluation of weed effects,Digitrria sanguinalis; 30 g/ha,60%
same,visual evaluation of weed effects,Digitrria sanguinalis; 45 g/ha,80%
same,visual evaluation of weed effects,Beckmannia syzigachne [5]; 30 g/ha,50%
same,visual evaluation of weed effects,Beckmannia syzigachne [5]; 45 g/ha,70%
same,visual evaluation of weed effects,"Poa annua [6]; POAAN 2˜3 leaves, 30 g/ha",80%
same,visual evaluation of weed effects,"Poa annua [6]; POAAN 2˜3 leaves, 45 g/ha",95%
same,visual evaluation of weed effects,"Poa annua [6]; POAAN, 30 g/ha",95%
same,visual evaluation of weed effects,"Poa annua [6]; POAAN, 45 g/ha",98%
same,visual evaluation of weed effects,"Cerastium arvense [7]; CERAR 3˜4 leaves, 30 g/ha",40%
same,visual evaluation of weed effects,"Cerastium arvense [7]; CERAR 3˜4 leaves, 45 g/ha",60%
same,visual evaluation of weed effects,"Cerastium arvense [7]; CERAR, 30 g/ha",80%
same,visual evaluation of weed effects,"Cerastium arvense [7]; CERAR, 45 g/ha",90%
same,visual evaluation of weed effects,"Galium aparine [8]; GALAP 7˜8 leaves, 30 g/ha",0%
same,visual evaluation of weed effects,"Galium aparine [8]; GALAP 7˜8 leaves, 45 g/ha",10%
same,visual evaluation of weed effects,"Galium aparine [8]; GALAP, 30 g/ha",30%
same,visual evaluation of weed effects,"Galium aparine [8]; GALAP, 45 g/ha",50%
same,visual evaluation of weed effects,Alopercurus japonicus [9]; 30 g/ha,90%
same,visual evaluation of weed effects,Alopercurus japonicus [9]; 45 g/ha,90%
same,weed control,weeds in rape field,high-effectively control; also recorded: effective weed control
same,effectiveness of control,weeds in rape field,moderate
same,visual evaluation of weed effects,Veronica didyma; 30 g/ha,20%
same,visual evaluation of weed effects,Veronica didyma; 45 g/ha,30%
same,visual evaluation of weed effects,Poa annua [10]; 30 g/ha,85%
same,visual evaluation of weed effects,Poa annua [10]; 45 g/ha,90%
same,visual evaluation of weed effects,Polypogon fugax [11]; 30 g/ha,50%
same,visual evaluation of weed effects,Polypogon fugax [11]; 45 g/ha,60%
same,visual evaluation of weed effects,Alopecurus aequalis [12]; 30 g/ha,80%
same,visual evaluation of weed effects,Alopecurus aequalis [12]; 45 g/ha,90%
same,visual evaluation of weed effects,Cerastium arvense [13]; 30 g/ha,50%
same,visual evaluation of weed effects,Cerastium arvense [13]; 45 g/ha,60%
same,visual evaluation of weed effects,"Galium aparine [14]; GALAP 7˜8 leaves, 30 g/ha",0%
same,visual evaluation of weed effects,"Galium aparine [14]; GALAP 7˜8 leaves, 45 g/ha",0%
same,visual evaluation of weed effects,"Galium aparine [14]; GALAP, 30 g/ha",20%
same,visual evaluation of weed effects,"Galium aparine [14]; GALAP, 45 g/ha",20%
same,visual evaluation of weed effects,Alopercurus japonicus [15]; 30 g/ha,85%
same,visual evaluation of weed effects,Alopercurus japonicus [15]; 45 g/ha,90%
"CCCOC(=O)c1ccc(NCc2ccccc2Oc2nc(OC)cc(OC)n2)cc1 [Pyribambenz-propyl, propyl 4-({2-[(4,6-dimethoxypyrimidin-2-yl)oxy]benzyl}amino)benzoate]",selectivity between rape and weeds,rape,good selectivity
same,safety to crops,rape,safety toward rape
same,visual evaluation of weed effects,Beckmannia syzigachne [1]; 30 g/ha,0%
same,visual evaluation of weed effects,Beckmannia syzigachne [1]; 45 g/ha,0%
same,visual evaluation of weed effects,Poa annua [2]; 30 g/ha,20%
same,visual evaluation of weed effects,Poa annua [2]; 45 g/ha,30%
same,visual evaluation of weed effects,Polypogon fugax [3]; 30 g/ha,70%
same,visual evaluation of weed effects,Polypogon fugax [3]; 45 g/ha,80%
same,visual evaluation of weed effects,"Alopecurus aequalis [4]; ALOAE 0 leaf, 30 g/ha",90%
same,visual evaluation of weed effects,"Alopecurus aequalis [4]; ALOAE 0 leaf, 45 g/ha",90%
same,visual evaluation of weed effects,"Alopecurus aequalis [4]; ALOAE 3 leaves, 30 g/ha",100%
same,visual evaluation of weed effects,"Alopecurus aequalis [4]; ALOAE 3 leaves, 45 g/ha",100%
same,visual evaluation of weed effects,Digitrria sanguinalis; 30 g/ha,60%
same,visual evaluation of weed effects,Digitrria sanguinalis; 45 g/ha,80%
same,visual evaluation of weed effects,Beckmannia syzigachne [5]; 30 g/ha,50%
same,visual evaluation of weed effects,Beckmannia syzigachne [5]; 45 g/ha,70%
same,visual evaluation of weed effects,"Poa annua [6]; POAAN 2˜3 leaves, 30 g/ha",85%
same,visual evaluation of weed effects,"Poa annua [6]; POAAN 2˜3 leaves, 45 g/ha",95%
same,visual evaluation of weed effects,"Poa annua [6]; POAAN, 30 g/ha",95%
same,visual evaluation of weed effects,"Poa annua [6]; POAAN, 45 g/ha",98%
same,visual evaluation of weed effects,"Cerastium arvense [7]; CERAR 3˜4 leaves, 30 g/ha",40%
same,visual evaluation of weed effects,"Cerastium arvense [7]; CERAR 3˜4 leaves, 45 g/ha",50%
same,visual evaluation of weed effects,"Cerastium arvense [7]; CERAR, 30 g/ha",80%
same,visual evaluation of weed effects,"Cerastium arvense [7]; CERAR, 45 g/ha",85%
same,visual evaluation of weed effects,"Galium aparine [8]; GALAP 7˜8 leaves, 30 g/ha",0%
same,visual evaluation of weed effects,"Galium aparine [8]; GALAP 7˜8 leaves, 45 g/ha",30%
same,visual evaluation of weed effects,"Galium aparine [8]; GALAP, 30 g/ha",20%
same,visual evaluation of weed effects,"Galium aparine [8]; GALAP, 45 g/ha",20%
same,visual evaluation of weed effects,Alopercurus japonicus [9]; 30 g/ha,90%
same,visual evaluation of weed effects,Alopercurus japonicus [9]; 45 g/ha,90%
same,weed control,weeds in rape field,high-effectively control; also recorded: effective weed control
same,effectiveness of control,weeds in rape field,moderate
same,visual evaluation of weed effects,Veronica didyma; 30 g/ha,20%
same,visual evaluation of weed effects,Veronica didyma; 45 g/ha,30%
same,visual evaluation of weed effects,Poa annua [10]; 30 g/ha,85%
same,visual evaluation of weed effects,Poa annua [10]; 45 g/ha,90%
same,visual evaluation of weed effects,"Galium aparine [14]; GALAP, 30 g/ha",20%
same,visual evaluation of weed effects,"Galium aparine [14]; GALAP, 45 g/ha",20%
same,visual evaluation of weed effects,Alopercurus japonicus [15]; 30 g/ha,85%
same,visual evaluation of weed effects,Alopercurus japonicus [15]; 45 g/ha,90%
same,visual evaluation of weed effects,Polypogon fugax [16]; 30 g/ha,60%
same,visual evaluation of weed effects,Polypogon fugax [16]; 45 g/ha,80%
same,visual evaluation of weed effects,Alopecurus aequalis [17]; 30 g/ha,95%
same,visual evaluation of weed effects,Alopecurus aequalis [17]; 45 g/ha,95%
same,visual evaluation of weed effects,Cerastium arvense [18]; 30 g/ha,70%
same,visual evaluation of weed effects,Cerastium arvense [18]; 45 g/ha,80%
same,visual evaluation of weed effects,Galium aparine [19]; 30 g/ha,0%
same,visual evaluation of weed effects,Galium aparine [19]; 45 g/ha,40%
